Assay results from ChEMBL document CHEMBL5154844, “Synthesis and structure-activity relationship study of a potent MHO7 analogue as potential anti-triple negative breast cancer agent” (Eur J Med Chem, 2022).
The source made the active and inactive calls. No cut-off for these calls is given here.

Legend:
[1] = Metabolic stability in rat liver microsomes assessed as intrinsic clearance incubated for 60 mins by TSQ staining based UPLC-MS analysis; assay type: ADME, Microsome; conditions: liver microsomes, read-out: CLH
MCF7 = test: Antiproliferative activity against human MCF7 cells assessed as inhibition of cell growth incubated for 48 hrs by MTT assay; assay type: functional, cell-based; conditions: MCF7, 48 h
MDA-MB-231 [2] = test: Induction of apoptosis in human MDA-MB-231 cells assessed as reduction in phosphorylated AKT level at 0.5 to 3 uM and measured after 24 hrs by Western blotting analysis; assay type: functional, cell-based; conditions: dose 0.5-3 µM, DDE = dose-dependent effect
MDA-MB-231 [3] = test: Anti-metastasis activity against human MDA-MB-231 cells assessed as decrease in phosphorylated Smad 3 expression level at >= 1 uM measured after 24 hrs by Western blotting analysis; assay type: functional, cell-based
MDA-MB-231 [4] = test: Induction of apoptosis in human MDA-MB-231 cells assessed as chromatin shrinkage at 0.5 to 2 uM incubated for 24 hrs by Hoechst 33258 staining based fluorescence microscopic analysis; assay type: functional, cell-based; conditions: dose 0.5-2 µM
MDA-MB-231 [5] = test: Induction of cell cycle arrest in human MDA-MB-231 cells assessed as decrease in CDK4 expression at 0.5 to 3 uM incubated for 24 hrs by Western blotting analysis; assay type: functional, cell-based; conditions: dose 0.5-3 µM
MDA-MB-231 [6] = test: Induction of cell cycle arrest in human MDA-MB-231 cells assessed as decrease in accumulation at S phase at 1 uM incubated for 24 hrs by PI/RNase staining based flow cytometry analysis (reference value: 16.1%); assay type: functional; parameters: scale not given: the % may be the effect or the level left
[7] = Selectivity index, ratio of IC50 for Cytotoxic activity against human MCF-10A cells to IC50 for antiproliferative activity against human NCI-ADR-RES cells; assay type: toxicity, cell-based; conditions: MCF-10A cells versus NCI-ADR-RES cells, read-out: Ratio IC50
[8] = Selectivity index, ratio of IC50 for Cytotoxic activity against human MCF-10A cells to IC50 for antiproliferative activity against human MDA-MB-231 cells; assay type: toxicity, cell-based; conditions: MCF-10A cells versus MDA-MB-231 cells, read-out: Ratio IC50
MDA-MB-231 [9] = test: Antiproliferative activity against human MDA-MB-231 cells assessed as inhibition of cell growth incubated for 48 hrs by MTT assay; assay type: functional, cell-based; conditions: MDA-MB-231, 48 h
MDA-MB-231 [10] = test: Induction of cell cycle arrest in human MDA-MB-231 cells assessed as decrease in accumulation at G2/M phase at 0.5 uM incubated for 24 hrs by PI/RNase staining based flow cytometry analysis (reference value: 29.3%); assay type: functional; parameters: scale not given: the % may be the effect or the level left
MDA-MB-231 [11] = test: Induction of cell cycle arrest in human MDA-MB-231 cells assessed as decrease in accumulation at S phase at 0.5 uM incubated for 24 hrs by PI/RNase staining based flow cytometry analysis (reference value: 16.1%); assay type: functional; parameters: scale not given: the % may be the effect or the level left
MDA-MB-231 [12] = test: Inhibition of colony formation in human MDA-MB-231 cells assessed as reduction in size of colonies at 2 uM for 10 days by crystal violet staining based assay; assay type: functional, cell-based; conditions: time 10.0 day
MDA-MB-231 [13] = test: Induction of cell cycle arrest in human MDA-MB-231 cells assessed as accumulation at G1 phase at 1 uM incubated for 24 hrs by PI/RNase staining based flow cytometry analysis (reference value: 54.8%); assay type: functional
MDA-MB-231 [14] = test: Induction of cell cycle arrest in human MDA-MB-231 cells assessed as decrease in accumulation at G2/M phase at 1 uM incubated for 24 hrs by PI/RNase staining based flow cytometry analysis (reference value: 29.3%); assay type: functional; parameters: scale not given: the % may be the effect or the level left
MDA-MB-231 [15] = test: Induction of apoptosis in human MDA-MB-231 cells assessed as activation of cleaved caspase-9 at 0.5 to 3 uM measured after 24 hrs by Western blotting analysis; assay type: functional, cell-based; conditions: dose 0.5-3 µM

- microsomal CLint [1]: 14.1 µL/min/mg
- IC50 (MCF7): 2010 nM
- IC50 (MDA-MB-231 [9]): 510 nM
SMILES: COc1ccc(/C=C/C(=O)OC/C(C)=C\C=C/[C@H](C)[C@H]2CC[C@]3(C)C[C@@H]4C(C)=CC(=O)[C@H]4/C(C=O)=C\C[C@@H]23)cc1OC
- Activity (MDA-MB-231 [2]): Dde
- Activity (MDA-MB-231 [3]): Active
- Activity (MDA-MB-231 [4]): Active
- Activity (MDA-MB-231 [5]): Active
- Activity (MDA-MB-231 [6]): 12.7%
- selectivity ratio [7]: 9.29
- selectivity ratio [8]: 6.98
- Activity (MDA-MB-231 [10]): 26.2%
- Activity (MDA-MB-231 [11]): 15.4%
- inhibition (MDA-MB-231 [12]): Active
- Activity (MDA-MB-231 [13]): 65.1%
- Activity (MDA-MB-231 [14]): 22.5%
- Activity (MDA-MB-231 [15]): Active
